Source: article PMC6047530 (Journal of medicinal chemistry, 2018)
“Also recorded” adds a separate entry of the source.

What was measured:
MEF PARP-1 KO−/− cells = test: Cell viability assay in MEF PARP-1 KO−/− cells; type: cell-based, mouse; conditions: for EC50: Mus musculus, read-out: PARP-1−/− EC50; for cell death, in words: MEF PARP-1 KO−/−
[1] = tested on: OVCAR8 (BRCA1-methylated) cell line; test: Cytotoxicity screen in OVCAR8 cells at 10 μM; type: cell-based
MEF WT cells = test: Cell viability assay in MEF WT cells; type: cell-based, mouse; conditions: for EC50: Mus musculus, read-out: WT EC50; for cell death, in words: MEF WT
UWB1.289 cells = test: Cell viability assay in UWB1.289; type: cell-based; conditions: UWB1.289 isogenic cell lines
other PARPs = test: PARPs enzyme inhibition panel at 10 μM; type: biochemical
[2] = tested on: poly(ADP-ribose) (PAR), biochemical product of PARP-1; test: Western blot analysis of PAR expression in OVCAR8 cells; type: cell-based; conditions: OVCAR8 cells treated 6 h
[3] = tested on: γH2AX foci in OVCAR8 cells; test: Immunofluorescent cell microscopy of γH2AX foci; type: cell-based; conditions: 0.01-10 μM, 24 hrs
MEF PARP-2 KO−/− cells = test: Cell viability assay in MEF PARP-2 KO−/− cells; type: cell-based; conditions: Mus musculus, read-out: PARP-2−/− EC50
PARP-1 = PARP-1 (Homo sapiens, UniProt P09874); test: PARP-1 radioligand binding; conditions: 10c vs 10a; 15b vs 15a
Sequence of PARP-1 (P09874 whole entry): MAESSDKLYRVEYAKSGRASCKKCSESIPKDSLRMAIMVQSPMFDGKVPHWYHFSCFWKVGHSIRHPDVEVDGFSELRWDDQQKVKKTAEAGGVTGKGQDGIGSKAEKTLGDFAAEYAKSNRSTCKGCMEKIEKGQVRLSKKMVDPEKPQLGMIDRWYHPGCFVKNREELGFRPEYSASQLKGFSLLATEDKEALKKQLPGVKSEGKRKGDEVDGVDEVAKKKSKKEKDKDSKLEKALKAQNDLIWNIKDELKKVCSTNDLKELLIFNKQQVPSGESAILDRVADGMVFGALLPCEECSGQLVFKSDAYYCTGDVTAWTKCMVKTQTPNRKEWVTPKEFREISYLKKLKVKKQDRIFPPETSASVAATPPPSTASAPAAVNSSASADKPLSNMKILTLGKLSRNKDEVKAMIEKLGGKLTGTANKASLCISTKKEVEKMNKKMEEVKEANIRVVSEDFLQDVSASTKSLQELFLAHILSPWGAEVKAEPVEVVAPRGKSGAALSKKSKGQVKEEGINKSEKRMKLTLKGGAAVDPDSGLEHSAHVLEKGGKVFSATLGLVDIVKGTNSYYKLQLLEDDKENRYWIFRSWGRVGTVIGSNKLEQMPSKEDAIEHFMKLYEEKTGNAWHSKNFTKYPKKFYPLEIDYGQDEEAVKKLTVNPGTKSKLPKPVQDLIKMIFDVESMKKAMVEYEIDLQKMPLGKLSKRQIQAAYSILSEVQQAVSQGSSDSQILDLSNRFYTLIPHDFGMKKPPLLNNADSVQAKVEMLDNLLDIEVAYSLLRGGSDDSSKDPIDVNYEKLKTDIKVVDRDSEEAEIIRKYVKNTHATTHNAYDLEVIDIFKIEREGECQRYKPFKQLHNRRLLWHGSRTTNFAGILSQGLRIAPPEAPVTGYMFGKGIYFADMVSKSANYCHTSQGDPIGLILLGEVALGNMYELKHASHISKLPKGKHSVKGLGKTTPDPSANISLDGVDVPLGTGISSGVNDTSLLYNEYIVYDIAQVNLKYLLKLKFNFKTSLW

Row | Structure (SMILES) | EC50 (MEF PARP-1 KO−/− cells) [µM] | EC50 (MEF WT cells) [µM] | further results
1 | O=C(c1cc(Cc2n[nH]c(=O)c3ccccc23)ccc1F)N1CCC2(CCCC2)C1 [Compound 15a, 4-(4-Fluoro-3-(2-azaspiro[4.4]nonane-2-carbonyl)benzyl)phthalazin-1(2H)-one] | > 100 | – | –
2 | O=C(c1cc(Cc2n[nH]c(=O)c3ccccc23)ccc1F)N1CC2(CCC2)C1 [Compound 10a, 4-(4-Fluoro-3-(2-azaspiro[3.3]heptane-2-carbonyl)benzyl)phthalazin-1(2H)-one] | > 100 | – | cytotoxicity / anti-proliferative activity (in words) [1]: poor cytotoxic properties
3 | O=C(c1cc(Cc2n[nH]c(=O)c3ccccc23)ccc1F)N1CC2(CCNCC2)C1 [Compound 12c, 4-(4-Fluoro-3-(2,7-diazaspiro[3.5]nonane-2-carbonyl)benzyl)phthalazin-1(2H)-one] | > 100 | > 100 | –
4 | O=C(c1cc(Cc2n[nH]c(=O)c3ccccc23)ccc1F)N1CC2(C1)CN(C(=O)C1CC1)C2 [Compound 10e, 4-(3-(6-(Cyclopropanecarbonyl)-2,6-diazaspiro[3.3]heptane-2-carbonyl)-4-fluorobenzyl)phthalazin-1(2H)-one] | > 100 | > 100 | cytotoxic concentration (EC50) relative to olaparib (UWB1.289 cells): approximately 7 fold; off-target enzymatic inhibition of other PARPs, in words (other PARPs): minimal off-target activity; also recorded: less enzymatic inhibition with most other PARPs; inhibition of PARP activity (PAR synthesis), in words [2]: inhibit PARP activity in a manner similar to olaparib; cell death, in words (MEF PARP-1 KO−/− cells): no measurable cell death; cell death, in words (MEF WT cells): no measurable cell death; DNA damage (γ-H2AX foci), in words [3]: did not induce DNA damage at similar drug concentrations as olaparib; also recorded: unable to induce DNA damage at concentrations as high as 10 μM
5 | O=C(C1CC1)N1CC2(CCN2C(=O)c2cc(Cc3n[nH]c(=O)c4ccccc34)ccc2F)C1 [Compound 11d, 4-(3-(6-(Cyclopropanecarbonyl)-1,6-diazaspiro[3.3]heptane-1-carbonyl)-4-fluorobenzyl)phthalazin-1(2H)-one] | > 100 | – | –
6 | O=C(c1cc(Cc2n[nH]c(=O)c3ccccc23)ccc1F)N1CCC2(CCCCC2)CC1 [Compound 17a, 4-(4-Fluoro-3-(3-azaspiro[5.5]undecane-3-carbonyl)benzyl)phthalazin-1(2H)-one] | > 100 | – | –
7 | O=C(c1cc(Cc2n[nH]c(=O)c3ccccc23)ccc1F)N1CCN(C(=O)C2CC2)CC1 [olaparib, reference compound] | – | – | DNA damage (γ-H2AX foci), in words [3]: induced DNA damage in a dose dependent manner
8 | O=C(c1cc(Cc2n[nH]c(=O)c3ccccc23)ccc1F)N1CCC2(CC1)CCN(C(=O)C1CC1)CC2 [Compound 17d, 4-(3-(9-(Cyclopropanecarbonyl)-3,9-diazaspiro[5.5]undecane-3-carbonyl)-4-fluorobenzyl)phthalazin-1(2H)-one] | – | – | cytotoxicity / anti-proliferative activity (in words) [1]: poor cytotoxic properties
9 | O=C(c1cc(Cc2n[nH]c(=O)c3ccccc23)ccc1F)N1CC2(COC2)C1 [Compound 10b, 4-(4-Fluoro-3-(2-oxa-6-azaspiro[3.3]heptane-6-carbonyl)benzyl)phthalazin-1(2H)-one] | > 100 | – | –
10 | O=C(c1cc(Cc2n[nH]c(=O)c3ccccc23)ccc1F)N1CC2(CCCCC2)C1 [Compound 12a, 4-(4-Fluoro-3-(2-azaspiro[3.5]nonane-2-carbonyl)benzyl)phthalazin-1(2H)-one] | – | – | cytotoxicity / anti-proliferative activity (in words) [1]: poor cytotoxic properties
11 | O=C(c1cc(Cc2n[nH]c(=O)c3ccccc23)ccc1F)N1CCC2(CCN(C(=O)C3CC3)CC2)C1 [Compound 16d, 4-(3-(8-(Cyclopropanecarbonyl)-2,8-diazaspiro[4.5]decane-2-carbonyl)-4-fluorobenzyl)phthalazin-1(2H)-one] | > 100 | – | –
12 | O=C(c1cc(Cc2n[nH]c(=O)c3ccccc23)ccc1F)N1CC2(CNC2)C1 [Compound 10d, 4-(4-Fluoro-3-(2,6-diazaspiro[3.3]heptane-2-carbonyl)benzyl)phthalazin-1(2H)-one] | > 100 | > 100 | EC50 (MEF PARP-2 KO−/− cells): > 100 µM; cell death, in words (MEF PARP-1 KO−/− cells): no cell death was observed; cell death, in words (MEF WT cells): no cell death was observed
13 | O=C(C1CC1)N1CCC2(CC1)CCN2C(=O)c1cc(Cc2n[nH]c(=O)c3ccccc23)ccc1F [Compound 13d, 4-(3-(7-(Cyclopropanecarbonyl)-1,7-diazaspiro[3.5]nonane-1-carbonyl)-4-fluorobenzyl)phthalazin-1(2H)-one] | > 100 | – | –
14 | O=C(c1cc(Cc2n[nH]c(=O)c3ccccc23)ccc1F)N1CC2(CCN(C(=O)C3CC3)CC2)C1 [Compound 12d, 4-(3-(7-(Cyclopropanecarbonyl)-2,7-diazaspiro[3.5]nonane-2-carbonyl)-4-fluorobenzyl)phthalazin-1(2H)-one] | > 100 | – | –
15 | O=C(c1cc(Cc2n[nH]c(=O)c3ccccc23)ccc1F)N1CCC2(CCNCC2)C1 [Compound 16c, 4-(4-Fluoro-3-(2,8-diazaspiro[4.5]decane-2-carbonyl)benzyl)phthalazin-1(2H)-one] | > 100 | > 100 | EC50 (MEF PARP-2 KO−/− cells): > 100 µM
16 | CC(C)(C)OC(=O)N1CC2(CCN2C(=O)c2cc(Cc3n[nH]c(=O)c4ccccc34)ccc2F)C1 [Compound 11b, Tert-butyl 1-(2-fluoro-5-((4-oxo-3,4-dihydrophthalazin-1-yl)methyl)benzoyl)-1,6-diazaspiro[3.3]heptane-6-carboxylate] | > 100 | – | –
17 | CC(C)(C)OC(=O)N1CCC2(CC1)CCN2C(=O)c1cc(Cc2n[nH]c(=O)c3ccccc23)ccc1F [Compound 13b, Tert-butyl 1-(2-fluoro-5-((4-oxo-3,4-dihydrophthalazin-1-yl)methyl)benzoyl)-1,7-diazaspiro[3.5]nonane-7-carboxylate] | > 100 | – | –
18 | O=C(c1cc(Cc2n[nH]c(=O)c3ccccc23)ccc1F)N1CCC2(CCN(C(=O)C3CC3)C2)C1 (centres unmarked) [Compound 15d, 4-(3-(7-(Cyclopropanecarbonyl)-2,7-dizaspiro[4.4]nonane-2-carbonyl)-4-fluorobenzyl)phthalazin-1(2H)-one] | > 100 | > 100 | –
19 | CC(C)(C)OC(=O)N1CCC2(CCN(C(=O)c3cc(Cc4n[nH]c(=O)c5ccccc45)ccc3F)C2)C1 (centres unmarked) [Compound 15b, Tert-butyl 7-(2-fluoro-5-((4-oxo-3,4-dihydrophthalazin-1-yl)methyl)benzoyl)-2,7-diazaspiro[4.4]nonane-2-carboxylate] | – | – | fold lower PARP-1 affinity compared to methylene congener (PARP-1): ~ 85 fold; inhibition of PARP activity (PAR synthesis), in words [2]: inhibit PARP activity in a manner similar to olaparib; DNA damage (γ-H2AX foci), in words [3]: induced DNA damage at micromolar concentrations; also recorded: induced DNA damage in a dose dependent manner
20 | CC(C)(C)OC(=O)N1CC2(C1)CN(C(=O)c1cc(Cc3n[nH]c(=O)c4ccccc34)ccc1F)C2 [Compound 10c, Tert-butyl 6-(2-fluoro-5-((4-oxo-3,4-dihydrophthalazin-1-yl)methyl)benzoyl)-2,6-diazaspiro[3.3]heptane-2-carboxylate] | > 100 | – | fold lower PARP-1 affinity compared to methylene congener (PARP-1): ~ 16 fold
21 | O=C(c1cc(Cc2n[nH]c(=O)c3ccccc23)ccc1F)N1CCC12CNC2 [Compound 11c, 4-(4-Fluoro-3-(1,6-diazaspiro[3.3]heptane-1-carbonyl)benzyl)phthalazin-1(2H)-one] | > 100 | > 100 | EC50 (MEF PARP-2 KO−/− cells): > 100 µM
22 | O=C(c1cc(Cc2n[nH]c(=O)c3ccccc23)ccc1F)N1CCC2(CCNCC2)CC1 [Compound 17c, 4-(4-Fluoro-3-(3,9-diazaspiro[5.5]undecane-3-carbonyl)benzyl)phthalazin-1(2H)-one] | > 100 | > 100 | –
23 | O=C(c1cc(Cc2n[nH]c(=O)c3ccccc23)ccc1F)N1CCC12CCCCC2 [Compound 13a, 4-(4-Fluoro-3-(1-azaspiro[3.5]nonane-1-carbonyl)benzyl)phthalazin-1(2H)-one] | > 100 | – | –
24 | O=C(c1cc(Cc2n[nH]c(=O)c3ccccc23)ccc1F)N1CCC2(CCNC2)C1 (centres unmarked) [Compound 15c, 4-(4-Fluoro-3-(2,7-diazaspiro[4.4]nonane-2-carbonyl)benzyl)phthalazin-1(2H)-one] | > 100 | > 100 | –
25 | O=C(c1cc(Cc2n[nH]c(=O)c3ccccc23)ccc1F)N1CCC12CCNCC2 [Compound 13c, 4-(4-Fluoro-3-(1,7-diazaspiro[3.5]nonane-1-carbonyl)benzyl)phthalazin-1(2H)-one] | > 100 | > 100 | –
26 | O=C(c1cc(Cc2n[nH]c(=O)c3ccccc23)ccc1F)N1CCC12CCC2 [Compound 11a, 4-(4-Fluoro-3-(1-azaspiro[3.3]heptane-1-carbonyl)benzyl)phthalazin-1(2H)-one] | > 100 | – | –
